The results in this text go back to ChEMBL document CHEMBL1201862, “PubChem BioAssay data set” (2004).

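These data come from cells grown in 96-well plates and exposed to compound for 48 hours at five concentrations. GI50 marks 50% less growth.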 Calls of active or inactive are those of the source. Cut-off read from the data, not from the text of the source: active = GI50 up to about 1.1 µM and inactive = higher.

Some test systems named below: COLO 205; OVCAR-5; EKVX; 786-0; HT-29; MDA-MB-231; SK-MEL-5; OVCAR-8; HCT-15; RPMI-8226; SK-MEL-2; SNB-19; HCT-116; TK-10; NCI-H460; UACC-257; Malme-3M; RXF 393; NCI/ADR-RES; CCRF-CEM.
Common to all, as to assay: NCI-60 cell line screen, 48 h

For the compound `Cc1cccc2c1c(=O)c1c(O)cc(O)cc1n2C`, the GI50 in the assay on COLO 205 is 30 µM (inactive); in the assay with OVCAR-5, > 100 µM (inactive); with EKVX it was 85.1 µM (inactive); in the assay with 786-0, > 100 µM (inactive); in the assay with HT-29 it was 72.3 µM (inactive); in the assay with MDA-MB-231, > 100 µM (inactive). Also, the GI50 was 34.2 µM (inactive) with SK-MEL-5; > 100 µM (inactive) in the assay on OVCAR-8; over 100 µM in the assay with HCT-15; > 100 µM (inactive) with RPMI-8226; > 100 µM (inactive) in the assay with SK-MEL-2; > 100 µM (inactive) with SNB-19. The GI50 in the assay with HCT-116 was 78.3 µM (inactive); with TK-10, > 100 µM (inactive); in the assay on NCI-H460, > 100 µM (inactive); in the assay on UACC-257, > 100 µM (inactive); in the assay with Malme-3M it was > 100 µM (inactive); with RXF 393 it was 59.8 µM (inactive). For the same compound, the GI50 in the assay with NCI/ADR-RES and with CCRF-CEM was > 100 µM (inactive) throughout.

Turning to `Cc1ccc(S(=O)(=O)NC(=O)NC(CC(N)=O)C(=O)O)cc1` (configuration not stated), the GI50 in the assay on COLO 205, with OVCAR-5, in the assay with 786-0, with HT-29, in the assay on MDA-MB-231 and in the assay on SK-MEL-5 was > 100 µM (inactive) in each case. Further, the GI50 was > 100 µM (inactive) in the assay with OVCAR-8; over 100 µM in the assay with HCT-15; > 100 µM (inactive) with RPMI-8226; > 100 µM (inactive) in the assay with SK-MEL-2; > 100 µM (inactive) in the assay with SNB-19; > 100 µM (inactive) in the assay with HCT-116. The GI50 in the assay with TK-10, with NCI-H460, with UACC-257, with Malme-3M, in the assay with RXF 393 and in the assay on NCI/ADR-RES was > 100 µM (inactive) in each case. Further, the GI50 in the assay on CCRF-CEM was > 100 µM (inactive).

Turning to `CCOC(=O)c1cc(Br)c(-c2onc(C)c2Br)[nH]1`, the GI50 is > 100 µM (inactive) with COLO 205; > 100 µM (inactive) in the assay with OVCAR-5; 27.9 µM (inactive) with EKVX; 21.6 µM (inactive) in the assay on 786-0; > 100 µM (inactive) in the assay on HT-29; 17.1 µM (inactive) with MDA-MB-231. Further, the GI50 is 42.1 µM (inactive) with SK-MEL-5; 27.6 µM (inactive) with OVCAR-8; over 100 µM in the assay with HCT-15; > 100 µM (inactive) with RPMI-8226; 80.7 µM (inactive) with SK-MEL-2; 24.9 µM (inactive) in the assay on SNB-19. Moreover, the GI50 in the assay on HCT-116 was 28.8 µM (inactive); in the assay on NCI-H460 it was 65.6 µM (inactive); in the assay on UACC-257, 93.5 µM (inactive); with Malme-3M, 34.4 µM (inactive); in the assay with RXF 393 it was 16.7 µM (inactive); with NCI/ADR-RES, 40.6 µM (inactive). Besides, the GI50 in the assay with CCRF-CEM is > 100 µM (inactive).

Take `CC1(C)CC2=C(Sc3ccccc3N2)C(=O)C1C(=O)C(=O)Nc1cc(Cl)ccc1Cl` (configuration not stated): the GI50 was > 100 µM (inactive) with COLO 205; > 100 µM (inactive) in the assay with OVCAR-5; > 100 µM (inactive) in the assay on EKVX; > 100 µM (inactive) in the assay with 786-0; 77.6 µM (inactive) in the assay with HT-29; > 100 µM (inactive) with MDA-MB-231. Moreover, the GI50 in the assay on SK-MEL-5 is 42.1 µM (inactive); in the assay on OVCAR-8, > 100 µM (inactive); with HCT-15, over 100 µM; in the assay with RPMI-8226 it was > 100 µM (inactive); with SK-MEL-2, > 100 µM (inactive); in the assay with SNB-19, > 100 µM (inactive). In addition, the GI50 was > 100 µM (inactive) in the assay on HCT-116; 14.9 µM (inactive) in the assay with NCI-H460; > 100 µM (inactive) with UACC-257; > 100 µM (inactive) with Malme-3M; > 100 µM (inactive) in the assay with RXF 393; 63.2 µM (inactive) in the assay with NCI/ADR-RES. Further, in the assay on CCRF-CEM, the GI50 is > 100 µM (inactive).

With `NN=C(CC(O)(C(F)(F)Cl)C(F)(F)Cl)CC(O)(C(F)(F)Cl)C(F)(F)Cl`, the GI50 in the assay with COLO 205, in the assay on OVCAR-5, in the assay on EKVX, with 786-0, with HT-29 and in the assay with MDA-MB-231 was > 10 µM (inactive) in each case. The GI50 is > 10 µM (inactive) in the assay on SK-MEL-5; > 10 µM (inactive) with OVCAR-8; over 10 µM in the assay on HCT-15; > 10 µM (inactive) in the assay on RPMI-8226; > 10 µM (inactive) in the assay with SK-MEL-2; > 10 µM (inactive) in the assay with SNB-19. The GI50 with HCT-116, in the assay on TK-10, in the assay with NCI-H460, with UACC-257, in the assay with Malme-3M and with RXF 393 was > 10 µM (inactive) each time. The GI50 with NCI/ADR-RES and in the assay on CCRF-CEM was > 10 µM (inactive) in each case.

On to `CN(C(=O)[C@H](NC(=O)OCc1ccccc1)c1ccccc1)C1CCCCC1N1CCCC1` (some centres not stated), for which the GI50 in the assay with COLO 205 is 87.9 µM (inactive); in the assay on OVCAR-5, > 100 µM (inactive); with EKVX, > 100 µM (inactive); in the assay with 786-0 it was 95.1 µM (inactive); in the assay with HT-29 it was 38.1 µM (inactive); in the assay on MDA-MB-231, > 100 µM (inactive). Further, the GI50 in the assay with SK-MEL-5 is 16 µM (inactive); with OVCAR-8 it was > 100 µM (inactive); in the assay on HCT-15 it was over 100 µM; in the assay with RPMI-8226 it was 36.3 µM (inactive); in the assay with SK-MEL-2 it was > 100 µM (inactive); with SNB-19, > 100 µM (inactive). In addition, the GI50 with HCT-116 was 69.2 µM (inactive); in the assay with TK-10, 74.6 µM (inactive); in the assay on NCI-H460, 40.6 µM (inactive); in the assay on UACC-257 it was 26.1 µM (inactive); with Malme-3M, 48.4 µM (inactive); in the assay on RXF 393, 87.3 µM (inactive). Also, the GI50 in the assay with NCI/ADR-RES is > 100 µM (inactive); in the assay on CCRF-CEM, 38.8 µM (inactive).

As for `O=C1/C(=C/c2cccc([N+](=O)[O-])c2)N=C(c2ccccc2)N1c1ccc2c(c1)Sc1cc(N3C(=O)/C(=C/c4cccc([N+](=O)[O-])c4)N=C3c3ccccc3)ccc1N2`, the GI50 was 40.9 µM (inactive) in the assay on COLO 205; 18.5 µM (inactive) with OVCAR-5; 25.4 µM (inactive) in the assay on EKVX; 21 µM (inactive) with 786-0; 91.8 µM (inactive) in the assay with HT-29; 29.1 µM (inactive) with MDA-MB-231. The GI50 with SK-MEL-5 was 17.3 µM (inactive); in the assay with OVCAR-8 it was 29.2 µM (inactive); in the assay on HCT-15, over 100 µM; in the assay with RPMI-8226 it was 26.7 µM (inactive); in the assay with SK-MEL-2, 20 µM (inactive); with SNB-19, 21.2 µM (inactive). The GI50 in the assay on HCT-116 is 42.8 µM (inactive); with TK-10 it was 19.6 µM (inactive); in the assay on NCI-H460, 41.9 µM (inactive); with UACC-257, 18.4 µM (inactive); in the assay with Malme-3M, 21.4 µM (inactive); with RXF 393, 21.6 µM (inactive). Further, the results for the GI50 in the assay with NCI/ADR-RES and with CCRF-CEM were 34.1 µM (inactive) and 16.9 µM (inactive), respectively.

Take `O=C1Nc2ccccc2/C1=c1\[nH]c(=O)/c(=C\c2ccc(OCc3ccccc3)cn2)[nH]c1=O`: the GI50 in the assay with COLO 205 was > 100 µM (inactive); in the assay on OVCAR-5, > 100 µM (inactive); with EKVX, 86.7 µM (inactive); in the assay with 786-0 it was 18.8 µM (inactive); with HT-29, > 100 µM (inactive); in the assay with MDA-MB-231, 35.1 µM (inactive). For the same compound, the GI50 in the assay with SK-MEL-5 is 64.6 µM (inactive); in the assay with OVCAR-8 it was 78.7 µM (inactive); in the assay on HCT-15 it was 41.1 µM; in the assay on RPMI-8226 it was > 100 µM (inactive); with SK-MEL-2, 38.2 µM (inactive); in the assay with SNB-19 it was 31.4 µM (inactive). Further, the GI50 with HCT-116 was 85.7 µM (inactive); in the assay with TK-10, 22.4 µM (inactive); with NCI-H460 it was > 100 µM (inactive); in the assay with UACC-257, > 100 µM (inactive); in the assay on Malme-3M it was 32.4 µM (inactive); in the assay with RXF 393, 8.17 µM (inactive). The results for the GI50 with NCI/ADR-RES and in the assay with CCRF-CEM were 91.6 µM (inactive) and 39.5 µM (inactive), respectively.

For `O=S(=O)(O)c1cc(/N=N/c2cc(S(=O)(=O)O)c3cccnc3c2O)ccc1/C=C/c1ccc(/N=N/c2cc(S(=O)(=O)O)c3cccnc3c2O)cc1S(=O)(=O)O`, the GI50 in the assay with COLO 205, in the assay with OVCAR-5, in the assay with EKVX, in the assay on 786-0, in the assay with HT-29 and with MDA-MB-231 was > 100 µM (inactive) throughout. Besides, the GI50 is > 100 µM (inactive) in the assay with SK-MEL-5; > 100 µM (inactive) in the assay with OVCAR-8; over 100 µM in the assay on HCT-15; > 97.7 µM (inactive) in the assay with RPMI-8226; > 100 µM (inactive) with SK-MEL-2; > 100 µM (inactive) in the assay with SNB-19. For the same compound, the GI50 in the assay on HCT-116 is > 89.1 µM (inactive); with TK-10, > 100 µM (inactive); in the assay with NCI-H460, > 100 µM (inactive); in the assay with UACC-257, > 100 µM (inactive); in the assay with Malme-3M it was > 100 µM (inactive); in the assay on RXF 393 it was > 31.6 µM (inactive). Also, the GI50 is > 100 µM (inactive) in the assay with NCI/ADR-RES and 18.3 µM (inactive) with CCRF-CEM.

Turning to `O=C1C2C3C=CC(C2C(=O)N1CN1CCOCC1)C1C2C(=O)N(CN4CCOCC4)C(=O)C2C31` (configuration not stated), the GI50 in the assay with COLO 205 is > 43 µM (inactive); in the assay with OVCAR-5, > 59.2 µM (inactive); in the assay with EKVX, 97.1 µM (inactive); in the assay on 786-0, > 42.8 µM (inactive); in the assay with HT-29 it was > 60 µM (inactive); with MDA-MB-231, > 100 µM (inactive). The GI50 in the assay on SK-MEL-5 was > 43.2 µM (inactive); in the assay on OVCAR-8 it was > 48.3 µM (inactive); in the assay on HCT-15 it was over 42.4 µM; with RPMI-8226, 34.6 µM (inactive); with SK-MEL-2, > 44 µM (inactive); in the assay on SNB-19, > 48 µM (inactive). The GI50 in the assay with HCT-116 is > 44.9 µM (inactive); in the assay with TK-10, > 55.3 µM (inactive); in the assay with NCI-H460 it was > 37.5 µM (inactive); with UACC-257 it was > 49.3 µM (inactive); in the assay on Malme-3M, > 100 µM (inactive); in the assay with RXF 393, > 49 µM (inactive). The GI50 was > 100 µM (inactive) in the assay on NCI/ADR-RES and 18.7 µM (inactive) with CCRF-CEM.
